Species: Rattus norvegicus
Test: DrugMatrix - Regimen: Daily Repeat
Format: toxicity, organism-based, Sprague-Dawley
Design: regimen Daily Repeat, gender Male, age 6-8 weeks
Details: in vivo, po, route oral GAVAGE, vehicle 100 % WATER; for ABSOLUTE BASOPHIL / ABSOLUTE EOSINOPHIL / ABSOLUTE LYMPHOCYTE / ABSOLUTE MONOCYTE / ABSOLUTE SEGMENTED NEUTROPHIL / BASOPHIL / EOSINOPHIL / ERYTHROCYTE COUNT / HEMATOCRIT / HEMOGLOBIN / LEUKOCYTE COUNT / LYMPHOCYTE / MEAN CORPUSCULAR HEMOGLOBIN / MEAN CORPUSCULAR HEMOGLOBIN CONCENTRATION / MEAN CORPUSCULAR VOLUME / MONOCYTE / NEUTROPHIL / NUCLEATED RED BLOOD CELLS / PLATELET COUNT: tissue Blood; for ALANINE AMINOTRANSFERASE / ALBUMIN / ALKALINE PHOSPHATASE / ASPARTATE AMINOTRANSFERASE / BLOOD UREA NITROGEN / CARBON DIOXIDE / CHLORIDE / CHOLESTEROL / CREATINE PHOSPHOKINASE / CREATININE / GLUCOSE / LIPASE / PHOSPHORUS / POTASSIUM / SODIUM / TOTAL BILIRUBIN / TOTAL PROTEIN / URIC ACID: tissue Plasma
[1] = 0 mg/kg, 72 h, dose level Control, time 3 day
[2] = 0 mg/kg, 120 h, dose level Control, time 5 day
[3] = 175 mg/kg, 72 h, dose level High, time 3 day

Structure (SMILES): CC(C)NCC(O)COc1cccc2ccccc12 (stereo unspecified) [PROPRANOLOL]
- ABSOLUTE BASOPHIL [1]: 0 CELLS/uL
- ABSOLUTE EOSINOPHIL [1]: 46 CELLS/uL
- ABSOLUTE LYMPHOCYTE [1]: 10225.67 CELLS/uL
- ABSOLUTE MONOCYTE [1]: 319.33 CELLS/uL
- ABSOLUTE SEGMENTED NEUTROPHIL [1]: 1242.33 CELLS/uL
- BASOPHIL [1]: 0%
- EOSINOPHIL [1]: 0.33%
- ERYTHROCYTE COUNT [1]: 5.17 x10E6/uL
- HEMATOCRIT [1]: 33.43%
- HEMOGLOBIN [1]: 12.55 G/DL
- LEUKOCYTE COUNT [1]: 11.83 x10E3/uL
- LYMPHOCYTE [1]: 86.5%
- MEAN CORPUSCULAR HEMOGLOBIN [1]: 24.35 pg
- MEAN CORPUSCULAR HEMOGLOBIN CONCENTRATION [1]: 37.57 G/DL
- MEAN CORPUSCULAR VOLUME [1]: 64.8 fL
- MONOCYTE [1]: 2.67%
- NEUTROPHIL [1]: 10.5%
- NUCLEATED RED BLOOD CELLS [1]: 0.17 /100WBC
- PLATELET COUNT [1]: 1026.17 x10E3/uL
- ALANINE AMINOTRANSFERASE [1]: 52.67 u/L
- ALBUMIN [1]: 4.17 G/DL
- ALKALINE PHOSPHATASE [1]: 331 u/L
- ASPARTATE AMINOTRANSFERASE [1]: 92.33 u/L
- BLOOD UREA NITROGEN [1]: 15.33 mg/dL
- CARBON DIOXIDE [1]: 26.17 mmol/L
- CHLORIDE [1]: 103.17 MEQ/L
- CHOLESTEROL [1]: 73.67 mg/dL
- CREATINE PHOSPHOKINASE [1]: 472.83 u/L
- CREATININE [1]: 0.29 mg/dL
- GLUCOSE [1]: 178.5 mg/dL
- LIPASE [1]: 10.67 u/L
- PHOSPHORUS [1]: 12.45 mg/dL
- POTASSIUM [1]: 6.35 MEQ/L
- SODIUM [1]: 144.27 MEQ/L
- TOTAL BILIRUBIN [1]: 0.13 mg/dL
- TOTAL PROTEIN [1]: 5.77 G/DL
- URIC ACID [1]: 2.08 mg/dL
- ABSOLUTE BASOPHIL [2]: 0 CELLS/uL
- ABSOLUTE EOSINOPHIL [2]: 23.5 CELLS/uL
- ABSOLUTE LYMPHOCYTE [2]: 12797.33 CELLS/uL
- ABSOLUTE MONOCYTE [2]: 465.5 CELLS/uL
- ABSOLUTE SEGMENTED NEUTROPHIL [2]: 1313.67 CELLS/uL
- BASOPHIL [2]: 0%
- EOSINOPHIL [2]: 0.17%
- ERYTHROCYTE COUNT [2]: 5.76 x10E6/uL
- HEMATOCRIT [2]: 36.72%
- HEMOGLOBIN [2]: 13.72 G/DL
- LEUKOCYTE COUNT [2]: 14.6 x10E3/uL
- LYMPHOCYTE [2]: 87.5%
- MEAN CORPUSCULAR HEMOGLOBIN [2]: 23.8 pg
- MEAN CORPUSCULAR HEMOGLOBIN CONCENTRATION [2]: 37.35 G/DL
- MEAN CORPUSCULAR VOLUME [2]: 63.72 fL
- MONOCYTE [2]: 3.17%
- NEUTROPHIL [2]: 9.17%
- NUCLEATED RED BLOOD CELLS [2]: 0.33 /100WBC
- PLATELET COUNT [2]: 1270.67 x10E3/uL
- ALANINE AMINOTRANSFERASE [2]: 50.5 u/L
- ALBUMIN [2]: 4.32 G/DL
- ALKALINE PHOSPHATASE [2]: 339.67 u/L
- ASPARTATE AMINOTRANSFERASE [2]: 88 u/L
- BLOOD UREA NITROGEN [2]: 17 mg/dL
- CARBON DIOXIDE [2]: 25 mmol/L
- CHLORIDE [2]: 103.83 MEQ/L
- CHOLESTEROL [2]: 71.33 mg/dL
- CREATINE PHOSPHOKINASE [2]: 281.83 u/L
- CREATININE [2]: 0.26 mg/dL
- GLUCOSE [2]: 161.67 mg/dL
- LIPASE [2]: 10.17 u/L
- PHOSPHORUS [2]: 11.72 mg/dL
- POTASSIUM [2]: 6.76 MEQ/L
- SODIUM [2]: 145.17 MEQ/L
- TOTAL BILIRUBIN [2]: 0.2 mg/dL
- TOTAL PROTEIN [2]: 6.15 G/DL
- URIC ACID [2]: 2 mg/dL
- ABSOLUTE BASOPHIL [3]: 0 CELLS/uL
- ABSOLUTE EOSINOPHIL [3]: 124 CELLS/uL
- ABSOLUTE LYMPHOCYTE [3]: 11451.33 CELLS/uL
- ABSOLUTE MONOCYTE [3]: 0 CELLS/uL
- ABSOLUTE SEGMENTED NEUTROPHIL [3]: 824.67 CELLS/uL
- BASOPHIL [3]: 0%
- EOSINOPHIL [3]: 1%
- ERYTHROCYTE COUNT [3]: 5.24 x10E6/uL
- HEMATOCRIT [3]: 34.07%
- HEMOGLOBIN [3]: 12.73 G/DL
- LEUKOCYTE COUNT [3]: 12.4 x10E3/uL
- LYMPHOCYTE [3]: 92%
- MEAN CORPUSCULAR HEMOGLOBIN [3]: 24.3 pg
- MEAN CORPUSCULAR HEMOGLOBIN CONCENTRATION [3]: 37.37 G/DL
- MEAN CORPUSCULAR VOLUME [3]: 65.07 fL
- MONOCYTE [3]: 0%
- NEUTROPHIL [3]: 7%
- NUCLEATED RED BLOOD CELLS [3]: 0 /100WBC
- PLATELET COUNT [3]: 1403.33 x10E3/uL
- ALANINE AMINOTRANSFERASE [3]: 49 u/L
- ALBUMIN [3]: 4.2 G/DL
- ALKALINE PHOSPHATASE [3]: 411 u/L
- ASPARTATE AMINOTRANSFERASE [3]: 73.33 u/L
- BLOOD UREA NITROGEN [3]: 14.33 mg/dL
- CARBON DIOXIDE [3]: 24 mmol/L
- CHLORIDE [3]: 103 MEQ/L
- CHOLESTEROL [3]: 75.33 mg/dL
- CREATINE PHOSPHOKINASE [3]: 253.33 u/L
- CREATININE [3]: 0.21 mg/dL
- GLUCOSE [3]: 152.33 mg/dL
- LIPASE [3]: 9 u/L
- PHOSPHORUS [3]: 13.13 mg/dL
- POTASSIUM [3]: 6.83 MEQ/L
- SODIUM [3]: 143.67 MEQ/L
- TOTAL BILIRUBIN [3]: 0.13 mg/dL
- TOTAL PROTEIN [3]: 5.77 G/DL
- URIC ACID [3]: 2.97 mg/dL

Source: ChEMBL document CHEMBL3885881, “DrugMatrix”
